{
  "source": "patent US8435519B2",
  "about": "“Antibodies that bind alpha subunit of sodium potassium ATPase” (priority 2005, dated 2013)",
  "key": {"D-R region of NKA": {"target": "T1, D-R region of NKA (Rattus norvegicus, UniProt P06685)", "T1 construct": "endogenous in cells; host or cells: isolated rat cardiac myocytes, frozen sections", "assay": "Immunofluorescent staining of rat cardiac myocytes", "type": "binding", "conditions": "ouabain 5, 10 and 20 mM", "experimental": "With both ouabain and SSA412: FIG. 5E: a group of cells with 5 mM ouabain at a magnification of 400×, FIG. 5F: a single cell with 5 mM ouabain at 1200×, FIG. 5G: cells with 10 mM ouabain, FIG. 5H: cells with 20 mM ouabain.\nIsolated rat heart cells were incubated in 1 ml cold lysis buffer containing 150 mM NaCl, 10 mM EDTA, 1% NP-40, 1 mM Na3VO4, and 1× protease inhibitor cocktail as described, with or without antibody. Immunoprecipitates were boiled for 5 min and loaded on a 7% SDS gel, and transferred from the SDS gel to a nitrocellulose membrane. The nitrocellulose membrane was blocked with 5% nonfat milk for 1 hour and incubated with SSA412 or other control antibodies overnight at 4° C. Alkaline phosphatase conjugated secondary antibody (1:2500) was then incubated with the membrane for 1 hour and washed 3 times with TBS in 0.05% Tween-20. Color was developed using a reagent containing a mixture of NBT and BCIP (Promega Corporation, WI). For immunofluorescent staining, rat myocytes were frozen and cut on a cryostat. Sections (8 μm) of each tissue were blocked with 1% bovine serum albumin (BSA) and incubated with SSA412 (1:100) for 60 min in the presence or absence of 5, 10, and 20 mM ouabain. Washed slides were evaluated after incubation with a FITC conjugated goat anti-rabbit antibody (1:75)."}, "[1]": {"tested_on": "α- and β-adrenergic receptors in isolated rat myocytes", "assay": "Effect of α- and β-adrenergic receptor inhibitors on cell contraction", "type": "cell-based", "conditions": "1 μM isoproterenol, inhibitors 7 μM each", "experimental": "Cell contractions were measured in the presence or absence of SSA412 (0.5 μM) with or without inhibitors. Black circles: with 1 μM isoproterenol. Open circles: with 1 μM isoproterenol+ both prazosin and propennol (7 μM each). Black triangles: with SSA412 in the presence of both prazosin and propennol (7 μM each). Data are presented as percent of control (n=8 cells for each group).\nMyocytes were placed on an inverted microscope (Zeiss model IM-35), superfused with HEPES-buffered solution at a flow rate of 1.8 ml/min, and electrically stimulated at 0.5 Hz at 23° C. Cell length was monitored from the bright-field image (650 nm to 750 nm red light illumination) by an optical edge-tracking method using a photodiode array (model 1024 SAQ, Reticon) with a 3-ms time resolution. Contraction amplitude was measured as the percentage of shortening of cell length."}, "[2]": {"tested_on": "isolated rat cardiac myocytes", "assay": "Intracellular Ca2+ transients and cell contraction", "type": "cell-based", "conditions": "SSA412 + 0.5 mM peptide blocker", "experimental": "Ventricular cardiac myocytes were isolated from adult Sprague-Dawley rats (2-3 months old, weight 225-300 g) using standard enzymatic technique as described previously.^1 Briefly, following anaesthesia (sodium pentobarbital, 100 mg/kg), the heart was quickly removed from the chest and aortic perfused at constant pressure at 37° C. for 3 min with a Ca^2+-free bicarbonate-based buffer containing 120 mM NaCL, 5.4 mM MgSO4, 1.2 mM NaH2PO4, 5.6 mM glucose, 20 mM NaHCO3, and 5 mM taurine, in the presence of O2 (95%)/CO2 (5%). Enzymatic digestion was initiated by adding collagenase (Worthington Type II, 1 mg/ml) to the perfusion solution. Calcium (50 μM) was added to the enzyme solution when the heart became swollen. About 7 min later, the left ventricle was quickly removed, cut into several pieces, and further digested on a shaker (60-70 rpm) for 10 min in the same enzyme solution. […]\nMyocytes were placed on an inverted microscope (Zeiss model IM-35), superfused with HEPES-buffered solution at a flow rate of 1.8 ml/min, and electrically stimulated at 0.5 Hz at 23° C. Cell length was monitored from the bright-field image (650 nm to 750 nm red light illumination) by an optical edge-tracking method using a photodiode array (model 1024 SAQ, Reticon) with a 3-ms time resolution. Contraction amplitude was measured as the percentage of shortening of cell length. […]"}, "[3]": {"target": "T2, purified ouabain-sensitive dog NKA (Canis lupus familiaris, UniProt P50997)", "T2 construct": "30 μg of purified dog kidney NKA; from tissue; host or cells: dog kidney", "assay": "NKA catalytic activity (ATPase assay, Kyte's method), purified dog NKA", "type": "biochemical", "conditions": "FIG. 7, antibody + peptide blocker", "experimental": "A first series of experiments were conducted testing whether antibody SSA412, binding to the D-R region of the alpha 1-subunit, affects NKA activity. NKA activity was determined based on Jack Kyte's method as previously described [17, which is hereby incorporated by reference as if set forth fully herein]. […] FIG. 2A and FIG. 2B show the time course of activation of purified rat (FIG. 2A: 0.125 mg/ml, ouabain-resistant) or dog (FIG. 2B: 0.125 mg/ml, ouabain-sensitive) NKA incubated with SSA412 (0.5 and 1.0 μM) or with 1.0 μM normal rabbit total IgG at 4° C. or at room temperature (FIG. 2C and FIG. 2D). The control is indicated by closed circles, […] SSA412 by open circles, […] SSA412 by closed triangles and […] rabbit IgG by open triangles.\nNKA activity was determined based on Jack Kyte's method as previously described under various experimental conditions as indicated in FIG. 2. All NKA activities in different experiments are ouabain-sensitive activity. Purified ouabain-resistant rat NKA and ouabain-sensitive dog NKA were used to verify the data. Enzymes were incubated with or without SSA412 for 60 min at room temperature. The reaction was initiated by adding different concentrations of MgATP in a final volume of 0.25 ml at 37° C. for 30 min and terminated by adding 0.75 ml quench solution and 0.025 ml developer. Color was developed for 30 minutes at room temperature and the concentration of phosphate was then determined at 700 nm using a spectrophotometer. NKA turnover number (kcat) was calculated using the equation kcat=Vmax/Et, where Vmax is the maximal velocity (rate of reaction) and Et represents enzyme concentration."}},
  "data": [
    {"molecule": "C[C@@H]1O[C@@H](O[C@H]2C[C@@H](O)[C@]3(CO)[C@H]4[C@H](O)C[C@]5(C)[C@@H](C6=CC(=O)OC6)CC[C@]5(O)[C@@H]4CC[C@]3(O)C2)[C@H](O)[C@H](O)[C@H]1O", "note": "[Ouabain, ouabain]", "values": [
      {"measurement": "competition with SSA412 binding to the D-R region of NKA", "setting": "D-R region of NKA", "result": "does not compete"}
    ]},
    {"molecule": "COc1cc2nc(N3CCN(C(=O)c4ccco4)CC3)nc(N)c2cc1OC", "note": "[prazosin]", "values": [
      {"measurement": "effect of inhibitor on action of the agonist isoproterenol", "setting": "[1]", "result": "eliminated"}
    ]},
    {"molecule": "CC(C)NCC(O)COc1cccc2ccccc12", "note": "(stereo not shown) [propennol]", "values": [
      {"measurement": "effect of inhibitor on action of the agonist isoproterenol", "setting": "[1]", "result": "eliminated"}
    ]},
    {"molecule": "DVEDSYGQQWTYEQR (Activation site of the (Na+K)-ATPase)", "values": [
      {"measurement": "SSA412-induced increase in calcium and contraction in presence of peptide blocker", "setting": "[2]", "result": "blocked"}
    ]},
    {"molecule": "KRQPRNPKTDKLVNE (Activation site of the (Na+K)-ATPase) [PB95]", "values": [
      {"measurement": "antibody-induced increase in NKA in presence of respective peptide blocker", "setting": "[3]", "result": "blocked"}
    ]},
    {"molecule": "RSATEEEPPNDD (Activation site of the (Na+K)-ATPase) [PB78]", "values": [
      {"measurement": "antibody-induced increase in NKA in presence of respective peptide blocker", "setting": "[3]", "result": "blocked"}
    ]},
    {"molecule": "VPAISLAYEQAESD (VPASLAYEQAESD; Activation site of the (Na+K)-ATPase) [PB97]", "values": [
      {"measurement": "antibody-induced increase in NKA in presence of respective peptide blocker", "setting": "[3]", "result": "blocked"}
    ]}
  ]
}
